Reference: patent US20120232000A1, “METHODS AND COMPOSITIONS FOR PROMOTING REGENERATION BY INCREASING INTRACELLULAR SODIUM CONCENTRATION” (priority 2009, published 2012)
“Also recorded” adds a separate entry of the source.

Legend:
Format in all cases: in vivo, Xenopus laevis
NaV1.2 protein = experiment: Immunohistochemistry of NaV1.2 protein in the regeneration bud
Text: In order to better understand the role of NaV1.2, we examined its potential relationships with known regenerative pathways. First, we investigated the pathways potentially regulating NaV1.2 expression. […] However, in amputated tails treated with Concanamycin, a specific inhibitor of V-ATPase activity (Huss et al., 2002) that blocks regeneration (Adams et al., 2007), the expression of NaV1.2 protein was absent at 24 and 48 hpa (FIGS. 4A-4C). […] We next examined NaV1.2 protein expression during the refractory stages, an endogenous period during development in which tadpoles temporarily lose the ability of caudal regeneration (Beck et al., 2003). NaV1.2 protein was not detected in 24-hour tail stumps amputated during this non-regenerative state (FIG. 4D).
(§1) Xenopus embryos were fixed overnight in MEMFA, heated for 2 hrs at 65° C. in 50% formamide (to inactivate endogenous alkaline phosphatases), permeabilized in PBTr+0.1% Triton X100 for 30 min, and processed for immunohistochemistry using alkaline phosphatase secondary antibody (Levin, 2004) until signal was optimal and background minimal (usually 12 hrs). The expression profiles represent consensus patterns obtained from the analysis of 8-12 embryos at each stage. Pan-anti-NaV (Sigma S-8809), anti-acetylated a-tubulin (Sigma #T6793), and anti-phospho-H3 (Upstate #05-598) antibodies were used at 1:1000.

[1] = test system: Xenopus tail regeneration; experiment: Tail regeneration assay, tails amputated at stages 40-41, scored at 7 days; settings: for tail regeneration: treatment after amputation at st. 40, 7 days
Procedure: Xenopus laevis larvae were cultured using standard protocols approved for the care of experimental organisms. Tails at stages 40-41, or stages 45-47 (refractory period) (Nieuwkoop and Faber, 1967) were amputated under a dissecting microscope using a scalpel blade at the midpoint between the anus and the tip. Tadpoles were cultured in (0.1×MMR±inhibitor) at 22° C. for 7 days and scored for tail regeneration. Drug experiments were carried out at least in duplicate.
To quantify and compare regeneration efficiency of tadpoles treated with different reagents, the “Regeneration Index” (RI) was determined. The RI evaluates the efficiency of regeneration for each treatment and allows for comparison of the effect of various treatments to controls.
Individual animals for each specific treatment were each scored as follows:
Full: complete regeneration (indistinguishable from uncut controls).
Good: robust regeneration with minor defects (e.g., missing fin, curved axis).
Poor: poor regeneration (hypomorphic/defective regenerates).
For each treatment, the percentage of regenerates belonging to each category were calculated, and then multiplied by 3, 2, 1 or 0, respectively for, Full, Good, Poor and None. The resulting R1 for each condition tested ranges from 0 to 300, with 0 corresponding to no regeneration, and 300 for complete regeneration.
Xenopus laevis larvae were cultured via approved protocols (IACUC #M2008-08). Tails at stages 40-41, or stages 45-47 (refractory period) (Nieuwkoop and Faber, 1967) were amputated at the midpoint between the anus and the tip. Tadpoles were cultured in (0.1×MMR±reagent) at 22° C. for 7 days and scored for tail regeneration. […]

[2] = test system: Na^+ influx into the regeneration bud; experiment: Imaging of sodium flux with CoroNa Green indicator dye
Procedure: NaV1.2 is a membrane-bound Na^+ transporter that regulates the influx of Na^+ into cells (Yu and Catterall, 2003). Thus, we examined the functional consequences of Na^+ transport in regeneration using MS-222. […] In intact tails, a few randomly distributed cells appear positive for the CoroNa Green signal relative to the majority of the tail population (FIG. 3A). […] When the amputated tails were treated with the NaV inhibitor, MS-222, the CoroNa Green signal was abolished (FIG. 3C, p<0.02), confirming that inhibition of NaV1.2 function abrogates Na^+ influx into the bud.
(§2) At 23 hpa, tadpoles were incubated in 90 μM of CoroNa Green indicator dye (Invitrogen) in 0.1×MMR for 45 minutes and washed twice in 0.1×MMR+30 uM BTS (to immobilize tadpole movement). At 24 hpa, the CoroNa Green signal was excited at […] and fluorescence emission data was collected at […]. Data was analyzed using IPLab software. For induction of Na^+ current, 0.1×MMR was supplemented with sodium gluconate (Sigma) to increase the Na^+ concentration to 90 mM. For refractory period analysis, tails were amputated at st. 47, at 18 hpa, and animals were treated with or without 90 mM Na^+ and 20 μM monensin (Sigma) in 0.1×MMR with 90 μM CoroNa Green for 45 minutes and washed twice in 0.1×MMR+50 uM BTS. Imaging of Vmem using DiBAC4(3) (Invitrogen) was performed exactly as described in (Adams et al., 2007).

[3] = test system: H3P-positive (mitotic) cells; experiment: Anti-H3P immunohistochemistry of mitotic cells in amputated tails; settings: 48 hpa, versus control siblings
Text: To understand the cellular basis for regenerative failure in animals with loss of NaV1.2 function, we examined proliferation in MS-222-treated amputated tails. During development, mitotic cells are observed to be randomly located in the growing tail. […]. We quantified the number and distribution of proliferating cells in regenerating tails at 48 hpa using an antibody to phosphorylated Histone 3B (H3P), a marker of the G2/M transition of the cell cycle that identifies mitotic cells in Xenopus and many other systems (Adams et al., 2007; Saka and Smith, 2001). […]. Many H3P-positive cells are seen in the wild-type regeneration bud (FIG. 3E) but very few are detected in MS-222 treated buds (FIG. 3F).
as §1

Notch1 = experiment: RNA in situ hybridization of Notch1 in the regeneration bud; settings: 48 hpa, MS-222 after amputation
Text: (§3) RNA expression of Notch, Msx1, and BMP components can be observed after 24 hpa in the regenerating tail tissues. We performed in situ hybridization using gene-specific RNA probes to examine the expression patterns of Notch and Msx1 in the regeneration bud after treatment with MS-222. In wild-type regeneration buds at 48 hpa, Notch1 is normally expressed in the neural ampulla and in the mesenchymal region of the regeneration bud (FIGS. 4F and 4H). […] At 48 hpa, Msx1 was expressed in the neural ampulla and at the epithelial edge of the regenerating tail tip (FIGS. 4J and 4L). When NaV activity was blocked, Msx1 expression was abolished (FIGS. 4K and 4M).
(§4) Embryos were fixed in MEMFA (Sive et al., 2000) and dehydrated in methanol. In situ hybridization was carried out according to standard protocols (Harland, 1991) with probes to: NaV1.2 (AY121368), NaV1.5 (Armisen et al., 2002), Notch1 (Coffman et al., 1990), and Msx1 (Feledy et al., 1999).

Msx1 = experiment: RNA in situ hybridization of Msx1 in the regeneration bud; settings: 48 hpa, MS-222 after amputation
Text: as §3, §4

BMP2 = experiment: Expression level of BMP2 in the regeneration bud (data not shown); settings: in the presence of MS-222, data not shown
Text: as §3

BMP4 = experiment: Expression level of BMP4 in the regeneration bud (data not shown); settings: in the presence of MS-222, data not shown
Text: as §3

Delta = experiment: Expression level of Delta in the regeneration bud (data not shown); settings: in the presence of MS-222, data not shown
[4] = test system: membrane voltage of regeneration bud cells; experiment: Imaging of membrane voltage with the voltage dye DiBAC4(3); settings: 24 hpa, versus control
Text: To gain a detailed mechanistic understanding of NaV1.2 activity, we examined the consequences of modulating Na^+ ion transport in the regenerating tail. During development, the intact tail is hyper-polarized with a few depolarized cells that are randomly distributed (Adams et al., 2007). However, after tail amputation, the presumptive regeneration bud becomes highly depolarized. […]. If the bud is polarized at this timepoint, then regeneration proceeds normally; if the bud remains depolarized (as when V-ATPase is inactivated, either during the refractory period or by Concanamycin), then regeneration fails. Because VGSC activity is also a well-known major determinant of a cell's membrane potential level, we hypothesized that loss of NaV1.2 activity could alter the membrane voltage state of the regeneration buds at 24 hpa.
as §2, with “47, at 18 hpa, and animals were treated with or without 90 mM Na^+ and 20 μM monensin (Sigma) in 0.1×MMR with 90 μM CoroNa Green for 45 minutes and washed twice in 0.1×MMR+50 uM BTS. Imaging of Vmem using DiBAC4(3) (Invitrogen) was performed exactly as described in (Adams et al., 2007).” left out

axons of the regenerate = experiment: Acetylated α-tubulin staining of axons in tail regenerates; settings: 72 hpa (3-day) tails, MS-222 treated
Text: It has long been known that regenerative growth requires proper innervation (Singer, 1952, 1965). Thus, we asked whether NaV1.2 regulates neural regeneration by examining the neuronal pattern in the amputated tail of tadpoles treated with MS-222. In normal 3-day old tail regenerates, axons appear in bundles that grow and concentrate to the end of the regenerate, in a direction parallel to the anterior-posterior axis (FIG. 3G).
as §1

regeneration bud = experiment: Apoptosis in the regeneration bud (data not shown); settings: MS-222 after tail amputation
Text: (§5) To characterize the temporal requirement of NaV1.2 function during regeneration, we looked to utilize pharmacological inhibitors of NaV1.2 that will enable us to vary the timing of the functional blockade. First, we determined whether chemical inhibition of NaV1.2 activity recapitulates its loss-of-function phenotype during regeneration. MS-222 (also known as tricaine) is a well-known inhibitor of VGSCs (Hedrick and Winmill, 2003) that blocks inward Na^+ currents (Frazier and Narahashi, 1975). […]. […] Importantly, the μM concentrations used for the tail assays were approximately ten-fold lower than what is usually used for amphibian anesthesia (generally in the mM range). Similar to the NaV1.2 RNAi experiment, the overall development and movement of the animals were normal during pharmacological treatment, and had no effect on primary tail formation during early embryogenesis. We conclude that NaV1.2 function is specifically required for regeneration, and that both pharmacological and molecular loss-of-function to selectively reveal the importance of NaV1.2.

Xenopus tadpoles = experiment: Observation of overall development and movement of treated animals; settings: during pharmacological treatment in the tail assay
Text: as §5

[5] = test system: Xenopus tail regeneration during the refractory period; experiment: Tail regeneration assay, tails amputated during the refractory period (stages 45-47)
[6] = 24 hpa regeneration bud, MS-222 treated

## C/C=C/[C@H]1O[C@@](O)([C@@H](C)[C@H](O)[C@H](C)[C@H]2OC(=O)/C(OC)=C/C(C)=C/[C@@H](C)[C@@H](O)[C@@H](CC)[C@@H](O)[C@H](C)C/C(C)=C/C=C/[C@@H]2OC)C[C@@H](O)[C@@H]1C [Concanamycin]
NaV1.2 protein; 24 hpa
  NaV1.2 protein expression in the regeneration bud: absent
NaV1.2 protein; 48 hpa
  NaV1.2 protein expression in the regeneration bud: absent

## CCOC(=O)c1cccc(N)c1.CS(=O)(=O)O [MS-222]
[1]; MS-222 (250 μM per FIG. 2B) immediately after tail amputation, scored at 7 days, RI 0-300, controls RI=265
  Regeneration Index (RI): 62
[1]; MS-222 added at 48 hpa, after regenerative outgrowth has begun
  effect on regeneration: no effect
[1]; MS-222 for the first 48 hpa
  tails that failed to regenerate: 78%
[1]; MS-222 for the first 24 hours post amputation
  tadpoles in which tail regeneration was prevented: 45%
[1]; MS-222 through the entire 7 days of the assay
  tails with inhibited regeneration: 82%
[1]
  tail regeneration: failed to regenerate; also recorded: inhibition of regeneration is dosage-dependent
[2]; [6]
  CoroNa Green signal / Na^+ entry into the bud: abolished; also recorded: blocks Na^+ entry into the bud
  decrease in CoroNa Green signal versus control buds: 70%
[3]
  decrease in the number of mitotic cells in the regeneration bud region: 90%
Notch1
  Notch1 RNA expression: greatly reduced; also recorded: greatly down-regulated and mis-localized
Msx1
  Msx1 RNA expression: abolished; also recorded: absent
BMP2
  level of BMP2: greatly reduced
BMP4
  level of BMP4: greatly reduced
Delta
  level of Delta: greatly reduced
[4]
  change of membrane voltage in regeneration bud cells: did not observe any changes in membrane voltage
Axons of the regenerate
  axon pattern and quantity in the regenerate: axons to extend circumferentially along the edge of the regeneration bud; also recorded: overall quantity of neurons appeared to be reduced
Regeneration bud
  apoptosis in the bud: did not induce significant apoptosis
Xenopus tadpoles
  overall development and movement of the animals: normal

## CN[C@@H]1C[C@H]2O[C@@](C)([C@@H]1OC)n1c3ccccc3c3c4c(c5c6ccccc6n2c5c31)C(=O)NC4 [Staurosporine]
[1]; 10 nM STS on amputated tails
  regenerative ability relative to controls: 28 % of controls
[1]
  tail regeneration: strong reduction
Xenopus tadpoles
  overall development and movement of the animals: otherwise unaffected

## CC[C@@]1([C@@H]2O[C@@H]([C@H]3O[C@@](O)(CO)[C@H](C)C[C@@H]3C)C[C@@H]2C)CC[C@H]([C@]2(C)CC[C@]3(C[C@H](O)[C@@H](C)[C@@H]([C@@H](C)[C@@H](OC)[C@H](C)C(=O)O)O3)O2)O1 [monensin]
[5]; 20 uM monensin in medium containing 90 mM Na^+ for one hour at 18 hpa, refractory controls 11.5, n=44
  Regeneration Index (RI): 59.1
[5]; 20 μM monensin with 90 mM Na^+, 1 hour at 18 hpa
  increase of regeneration over the control: 3 fold
[5]; 20 μM monensin with 90 mM Na^+, 1 hour at 18 hpa, 7 dpa, controls 11%
  tadpoles with induced regeneration: 36%
[5]; 20 μM monensin with 90 mM Na^+, 1 hour at 18 hpa, share of the regenerating tails
  regenerated tails showing good to full regeneration: 45%
[5]; monensin alone, without high extracellular Na^+, data not shown
  regenerative ability: did not improve regenerative ability
[2]; refractory tails at 19 hpa, after one hour of 20 uM monensin in 90 mM Na^+ medium
  CoroNa Green signal at the amputation site: strong CoroNa Green fluorescence; also recorded: significantly stronger CoroNa Green signal

## insulin
[5]; insulin at 0 hours post amputation, assayed at 7 days, control 16%
  animals showing good or full regeneration: 39%
[5]; insulin at 0 hours post amputation, assayed at 7 days, control RI=62, RI of 300 = full regeneration
  Regeneration Index (RI): 118
